According to PubChem BioAssay AID1845216 (Molecular Pharmacology Branch, DTP, NCI, 2023):

Test system: SW 982 tumor spheroid viability
Assay: Anticancer human tumor SW 982 cell line growth inhibition;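 note: spheroids exposed to compound for 7 days before readout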
Settings: spheroids with HUVEC and MSC; for IC50: curve of first compound; for viability, T/C: stronger effect = lower value
Method in brief: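 Single agents and combinations were tested on spheroids built from tumor cells plus HUVEC and hMSC, at half-log dilutions starting at or near clinical Cmax, else 10 microM; final DMSO 0.25% (v/v).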

[1] = second compound 30 pM, first compound 0.00949 µM
[2] = second compound 30 pM, first compound 0.03 µM
[3] = second compound 30 pM, first compound 0.0949 µM
[4] = second compound 30 pM, first compound 0.3 µM
[5] = second compound 30 pM, first compound 0.949 µM
[6] = second compound 30 pM, first compound 3 µM
[7] = second compound 94.9 pM, first compound 0.00949 µM
[8] = second compound 94.9 pM, first compound 0.03 µM
[9] = second compound 94.9 pM, first compound 0.0949 µM
[10] = second compound 94.9 pM, first compound 0.3 µM
[11] = second compound 94.9 pM, first compound 0.949 µM
[12] = second compound 94.9 pM, first compound 3 µM
[13] = second compound 0.0003 µM, first compound 0.00949 µM
[14] = second compound 0.0003 µM, first compound 0.03 µM
[15] = second compound 0.0003 µM, first compound 0.0949 µM
[16] = second compound 0.0003 µM, first compound 0.3 µM
[17] = second compound 0.0003 µM, first compound 0.949 µM
[18] = second compound 0.0003 µM, first compound 3 µM
[19] = second compound 0.000949 µM, first compound 0.00949 µM
[20] = second compound 0.000949 µM, first compound 0.03 µM
[21] = second compound 0.000949 µM, first compound 0.0949 µM
[22] = second compound 0.000949 µM, first compound 0.3 µM
[23] = second compound 0.000949 µM, first compound 0.949 µM
[24] = second compound 0.000949 µM, first compound 3 µM
[25] = second compound 0.003 µM, first compound 0.00949 µM
[26] = second compound 0.003 µM, first compound 0.03 µM
[27] = second compound 0.003 µM, first compound 0.0949 µM
[28] = second compound 0.003 µM, first compound 0.3 µM
[29] = second compound 0.003 µM, first compound 0.949 µM
[30] = second compound 0.003 µM, first compound 3 µM

CNCc1ccc(-c2cc(-c3nc(-c4ccc(S(=O)(=O)C(C)C)cc4)cnc3N)on2)cc1 + COc1cc2c(cc1O)CCNC21CSC2c3c(OC(C)=O)c(C)c4c(c3C(COC1=O)N1C(O)C3Cc5cc(C)c(OC)c(O)c5C(C21)N3C)OCO4
IC50 (second compound 30 pM): 211 nM | IC50 (second compound 94.9 pM): 131 nM | IC50 (second compound 0.0003 µM): 107 nM | IC50 (second compound 0.000949 µM): < 9.49 nM | IC50 (second compound 0.003 µM): < 9.49 nM | viability, T/C [1]: 99.6% | viability, T/C [2]: 95.6% | viability, T/C [3]: 78.3% | viability, T/C [4]: 33.4% | viability, T/C [5]: 23.8% | viability, T/C [6]: 2.48% | viability, T/C [7]: 100% | viability, T/C [8]: 94% | viability, T/C [9]: 55.9% | viability, T/C [10]: 26.4% | viability, T/C [11]: 18.9% | viability, T/C [12]: 2.12% | viability, T/C [13]: 84.7% | viability, T/C [14]: 81% | viability, T/C [15]: 47.9% | viability, T/C [16]: 28.2% | viability, T/C [17]: 16.5% | viability, T/C [18]: 2.22% | viability, T/C [19]: 49.3% | viability, T/C [20]: 39.2% | viability, T/C [21]: 28.2% | viability, T/C [22]: 15.9% | viability, T/C [23]: 9.5% | viability, T/C [24]: 0.69% | viability, T/C [25]: 0.4% | viability, T/C [26]: 1.22% | viability, T/C [27]: 0.92% | viability, T/C [28]: 0.5% | viability, T/C [29]: 1.07% | viability, T/C [30]: 0.31%

Cc1cc(C)c(CNC(=O)c2cc(-c3ccc(CN4CCOCC4)cc3)cc3c2cnn3C2CCCC2)c(=O)[nH]1 + COc1cc2c(cc1O)CCNC21CSC2c3c(OC(C)=O)c(C)c4c(c3C(COC1=O)N1C(O)C3Cc5cc(C)c(OC)c(O)c5C(C21)N3C)OCO4
IC50 (second compound 30 pM): > 10000 nM | IC50 (second compound 94.9 pM): > 10000 nM | IC50 (second compound 0.0003 µM): 10000 nM | IC50 (second compound 0.000949 µM): < 31.6 nM | IC50 (second compound 0.003 µM): < 31.6 nM | viability, T/C (second compound 30 pM, first compound 0.0316 µM): 97.9% | viability, T/C (second compound 30 pM, first compound 0.1 µM): 99.7% | viability, T/C (second compound 30 pM, first compound 0.316 µM): 104% | viability, T/C (second compound 30 pM, first compound 1 µM): 96.7% | viability, T/C (second compound 30 pM, first compound 3.16 µM): 92% | viability, T/C (second compound 30 pM, first compound 10 µM): 66.7% | viability, T/C (second compound 94.9 pM, first compound 0.0316 µM): 95.4% | viability, T/C (second compound 94.9 pM, first compound 0.1 µM): 106% | viability, T/C (second compound 94.9 pM, first compound 0.316 µM): 102% | viability, T/C (second compound 94.9 pM, first compound 1 µM): 103% | viability, T/C (second compound 94.9 pM, first compound 3.16 µM): 88.4% | viability, T/C (second compound 94.9 pM, first compound 10 µM): 57.9% | viability, T/C (second compound 0.0003 µM, first compound 0.0316 µM): 74.7% | viability, T/C (second compound 0.0003 µM, first compound 0.1 µM): 76% | viability, T/C (second compound 0.0003 µM, first compound 0.316 µM): 84% | viability, T/C (second compound 0.0003 µM, first compound 1 µM): 80.7% | viability, T/C (second compound 0.0003 µM, first compound 3.16 µM): 71.5% | viability, T/C (second compound 0.0003 µM, first compound 10 µM): 49.8% | viability, T/C (second compound 0.000949 µM, first compound 0.0316 µM): 35.7% | viability, T/C (second compound 0.000949 µM, first compound 0.1 µM): 39.9% | viability, T/C (second compound 0.000949 µM, first compound 0.316 µM): 37.5% | viability, T/C (second compound 0.000949 µM, first compound 1 µM): 36.1% | viability, T/C (second compound 0.000949 µM, first compound 3.16 µM): 27.6% | viability, T/C (second compound 0.000949 µM, first compound 10 µM): 17.8% | viability, T/C (second compound 0.003 µM, first compound 0.0316 µM): 0.71% | viability, T/C (second compound 0.003 µM, first compound 0.1 µM): 0.36% | viability, T/C (second compound 0.003 µM, first compound 0.316 µM): 0.51% | viability, T/C (second compound 0.003 µM, first compound 1 µM): 0.31% | viability, T/C (second compound 0.003 µM, first compound 3.16 µM): 0.29% | viability, T/C (second compound 0.003 µM, first compound 10 µM): 0.83%

Cc1sc2c(c1C)C(c1ccc(Cl)cc1)=NC(CC(=O)Nc1ccc(O)cc1)c1nnc(C)n1-2 (stereo not given) + COc1cc2c(cc1O)CCNC21CSC2c3c(OC(C)=O)c(C)c4c(c3C(COC1=O)N1C(O)C3Cc5cc(C)c(OC)c(O)c5C(C21)N3C)OCO4
IC50 (second compound 30 pM): 257 nM | IC50 (second compound 94.9 pM): 344 nM | IC50 (second compound 0.0003 µM): 482 nM | IC50 (second compound 0.000949 µM): 9.49 nM | IC50 (second compound 0.003 µM): < 9.49 nM | viability, T/C [1]: 95.5% | viability, T/C [2]: 94.6% | viability, T/C [3]: 75.5% | viability, T/C [4]: 46.2% | viability, T/C [5]: 28.5% | viability, T/C [6]: 23.6% | viability, T/C [7]: 97.4% | viability, T/C [8]: 96.7% | viability, T/C [9]: 71.1% | viability, T/C [10]: 53.8% | viability, T/C [11]: 33.2% | viability, T/C [12]: 21.6% | viability, T/C [13]: 76.6% | viability, T/C [14]: 82.5% | viability, T/C [15]: 70.4% | viability, T/C [16]: 68% | viability, T/C [17]: 24.9% | viability, T/C [18]: 13.6% | viability, T/C [19]: 41.4% | viability, T/C [20]: 41.3% | viability, T/C [21]: 64.8% | viability, T/C [22]: 19.2% | viability, T/C [23]: 4.8% | viability, T/C [24]: 3.12% | viability, T/C [25]: 0.7% | viability, T/C [26]: 8.8% | viability, T/C [27]: 0.33% | viability, T/C [28]: 0.26% | viability, T/C [29]: 0.37% | viability, T/C [30]: 0.99%

Cn1ncnc1[C@H]1c2n[nH]c(=O)c3cc(F)cc(c23)N[C@@H]1c1ccc(F)cc1 + COc1cc2c(cc1O)CCNC21CSC2c3c(OC(C)=O)c(C)c4c(c3C(COC1=O)N1C(O)C3Cc5cc(C)c(OC)c(O)c5C(C21)N3C)OCO4
IC50 (second compound 30 pM): > 3000 nM | IC50 (second compound 94.9 pM): 2740 nM | IC50 (second compound 0.0003 µM): 1830 nM | IC50 (second compound 0.000949 µM): < 9.49 nM | IC50 (second compound 0.003 µM): < 9.49 nM | viability, T/C [1]: 93.6% | viability, T/C [2]: 89.1% | viability, T/C [3]: 85.9% | viability, T/C [4]: 85% | viability, T/C [5]: 76.3% | viability, T/C [6]: 52.6% | viability, T/C [7]: 80.7% | viability, T/C [8]: 85.3% | viability, T/C [9]: 82% | viability, T/C [10]: 82% | viability, T/C [11]: 66.3% | viability, T/C [12]: 48.6% | viability, T/C [13]: 76% | viability, T/C [14]: 73.5% | viability, T/C [15]: 70% | viability, T/C [16]: 76.1% | viability, T/C [17]: 54.6% | viability, T/C [18]: 46.6% | viability, T/C [19]: 32.3% | viability, T/C [20]: 28.7% | viability, T/C [21]: 25.2% | viability, T/C [22]: 27% | viability, T/C [23]: 14.8% | viability, T/C [24]: 2.84% | viability, T/C [25]: 0.32% | viability, T/C [26]: 0.45% | viability, T/C [27]: 0.37% | viability, T/C [28]: 0.38% | viability, T/C [29]: 0.36% | viability, T/C [30]: 0.91%
